# Source: patent publication US6770456B1, “Endogenous retrovirus tumor associated nucleic acids and antigens” (Ludwig Institute for Cancer Research, priority 1998, dated 2004)
# Test system: AVL3-EBV B cells
# Assay: Peptide sensitization of EBV-transformed B cells to lysis by CTL 13 (51Cr release)
# Type: cell-based, human
# Conditions: 51Cr-labeled cells incubated 30 min at 20° C. with peptide; effector:target 5:1; chromium release after 4 hr; read-out: half-maximal effect for sensitizing AVL3-EBV B cells to lysis by CTL clone 13
# Method: Sensitivity of target cells to lysis by the CTL was evaluated by a standard ^51Cr-release assay over 4 hr. Some lysis assays were performed in the presence of the following murine monoclonal antibodies: BB7.2, an IgG2b anti-HLA-A2 (from the ATCC), and OKM1, an IgG2b anti-CD11b (from the ATCC).
# One of them, MLAVISCAV (SEQ ID NO:9), was contained within an open reading frame starting with an initiation codon preceeded by a canonical Kozak consensus sequence. This peptide sensitized AVL3-EBV B cells to lysis by CTL clone 13, with an half-maximal effect at 5 nM (FIG. 4). ^51Cr-labeled EBV-transformed B cells from patient AVL3 were incubated for 30 min at 20° C. with the indicated concentrations of peptide. CTL 13 were then added at an effector:target ratio of 5:1, and chromium release was measured after 4 hr.
sequence,measurement,value
MLAVISCAV,EC50,5 nM
